Measured values: ChEMBL document CHEMBL2203257 (Bioorg Med Chem Lett, 2012)

Assays:
[1] = biological target: Calcium/calmodulin-dependent protein kinase kinase 1 (Homo sapiens, UniProt Q8N5S9); assay: Inhibition of CAMKK1
[2] = biological target: Cyclin-dependent kinase 1 (Homo sapiens, UniProt P06493); assay: Inhibition of CDC2
[3] = biological target: Casein kinase II subunit alpha (Homo sapiens, UniProt P68400); assay: Inhibition of CK2a1
[4] = biological target: Tyrosine-protein kinase CSK (Homo sapiens, UniProt P41240); assay: Inhibition of CSK
[5] = biological target: Casein kinase I isoform gamma-3 (Homo sapiens, UniProt Q9Y6M4); assay: Inhibition of CSNK1G3
[6] = biological target: Casein kinase II subunit alpha' (Homo sapiens, UniProt P19784); assay: Inhibition of CSNK2A2
Chain of Casein kinase II subunit alpha' (P19784 whole entry, the tested form may be a part): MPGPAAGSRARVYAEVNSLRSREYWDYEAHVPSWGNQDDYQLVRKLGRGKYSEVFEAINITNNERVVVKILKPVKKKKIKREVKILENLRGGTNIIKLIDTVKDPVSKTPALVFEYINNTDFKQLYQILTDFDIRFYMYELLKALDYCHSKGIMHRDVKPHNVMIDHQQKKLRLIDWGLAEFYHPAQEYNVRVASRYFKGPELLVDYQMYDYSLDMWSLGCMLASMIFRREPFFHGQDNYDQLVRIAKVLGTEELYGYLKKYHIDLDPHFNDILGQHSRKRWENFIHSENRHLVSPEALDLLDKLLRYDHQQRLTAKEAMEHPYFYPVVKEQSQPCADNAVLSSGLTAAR

[7] = biological target: Epithelial discoidin domain-containing receptor 1 (Homo sapiens, UniProt Q08345); assay: Inhibition of DDR1
[8] = biological target: Fibroblast growth factor receptor 1 (Homo sapiens, UniProt P11362); assay: Inhibition of FGFR1
[9] = biological target: Glycogen synthase kinase-3 beta (Homo sapiens, UniProt P49841); assay: Inhibition of GSK3B
[10] = biological target: Inhibitor of nuclear factor kappa-B kinase subunit epsilon (Homo sapiens, UniProt Q14164); assay: Inhibition of IKBKE
[11] = biological target: Tyrosine-protein kinase JAK2 (Homo sapiens, UniProt O60674); assay: Inhibition of JAK2
[12] = biological target: Serine/threonine-protein kinase SIK3 (Homo sapiens, UniProt Q9Y2K2); assay: Inhibition of KIAA0999
[13] = biological target: Tyrosine-protein kinase Lck (Homo sapiens, UniProt P06239); assay: Inhibition of LCK
[14] = biological target: LIM domain kinase 1 (Homo sapiens, UniProt P53667); assay: Inhibition of LIMK1
[15] = biological target: LIM domain kinase 2 (Homo sapiens, UniProt P53671); assay: Inhibition of LIMK2
Chain of LIM domain kinase 2 (P53671 whole entry, the tested form may be a part): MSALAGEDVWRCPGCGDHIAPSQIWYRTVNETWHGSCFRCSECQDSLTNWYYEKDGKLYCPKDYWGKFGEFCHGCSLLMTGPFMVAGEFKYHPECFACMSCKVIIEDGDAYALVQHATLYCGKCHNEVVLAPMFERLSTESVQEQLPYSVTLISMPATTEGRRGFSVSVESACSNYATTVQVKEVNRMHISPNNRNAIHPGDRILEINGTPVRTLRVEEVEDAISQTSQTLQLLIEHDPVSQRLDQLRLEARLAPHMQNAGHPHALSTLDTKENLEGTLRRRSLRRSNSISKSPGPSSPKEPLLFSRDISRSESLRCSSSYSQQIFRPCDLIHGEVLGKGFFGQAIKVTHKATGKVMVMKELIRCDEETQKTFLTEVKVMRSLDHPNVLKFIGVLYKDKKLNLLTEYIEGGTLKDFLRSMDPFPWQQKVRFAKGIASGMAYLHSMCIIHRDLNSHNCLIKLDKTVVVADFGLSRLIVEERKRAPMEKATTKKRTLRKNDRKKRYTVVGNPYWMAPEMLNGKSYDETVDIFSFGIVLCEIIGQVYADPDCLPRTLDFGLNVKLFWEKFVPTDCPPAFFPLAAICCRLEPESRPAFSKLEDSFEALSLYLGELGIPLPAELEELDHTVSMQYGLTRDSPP

[16] = biological target: Dual specificity mitogen-activated protein kinase kinase 1 (Homo sapiens, UniProt Q02750); assay: Inhibition of MAP2K1
[17] = biological target: Mitogen-activated protein kinase kinase kinase 4 (Homo sapiens, UniProt Q9Y6R4); assay: Inhibition of MAP3K4
Chain of Mitogen-activated protein kinase kinase kinase 4 (Q9Y6R4 whole entry): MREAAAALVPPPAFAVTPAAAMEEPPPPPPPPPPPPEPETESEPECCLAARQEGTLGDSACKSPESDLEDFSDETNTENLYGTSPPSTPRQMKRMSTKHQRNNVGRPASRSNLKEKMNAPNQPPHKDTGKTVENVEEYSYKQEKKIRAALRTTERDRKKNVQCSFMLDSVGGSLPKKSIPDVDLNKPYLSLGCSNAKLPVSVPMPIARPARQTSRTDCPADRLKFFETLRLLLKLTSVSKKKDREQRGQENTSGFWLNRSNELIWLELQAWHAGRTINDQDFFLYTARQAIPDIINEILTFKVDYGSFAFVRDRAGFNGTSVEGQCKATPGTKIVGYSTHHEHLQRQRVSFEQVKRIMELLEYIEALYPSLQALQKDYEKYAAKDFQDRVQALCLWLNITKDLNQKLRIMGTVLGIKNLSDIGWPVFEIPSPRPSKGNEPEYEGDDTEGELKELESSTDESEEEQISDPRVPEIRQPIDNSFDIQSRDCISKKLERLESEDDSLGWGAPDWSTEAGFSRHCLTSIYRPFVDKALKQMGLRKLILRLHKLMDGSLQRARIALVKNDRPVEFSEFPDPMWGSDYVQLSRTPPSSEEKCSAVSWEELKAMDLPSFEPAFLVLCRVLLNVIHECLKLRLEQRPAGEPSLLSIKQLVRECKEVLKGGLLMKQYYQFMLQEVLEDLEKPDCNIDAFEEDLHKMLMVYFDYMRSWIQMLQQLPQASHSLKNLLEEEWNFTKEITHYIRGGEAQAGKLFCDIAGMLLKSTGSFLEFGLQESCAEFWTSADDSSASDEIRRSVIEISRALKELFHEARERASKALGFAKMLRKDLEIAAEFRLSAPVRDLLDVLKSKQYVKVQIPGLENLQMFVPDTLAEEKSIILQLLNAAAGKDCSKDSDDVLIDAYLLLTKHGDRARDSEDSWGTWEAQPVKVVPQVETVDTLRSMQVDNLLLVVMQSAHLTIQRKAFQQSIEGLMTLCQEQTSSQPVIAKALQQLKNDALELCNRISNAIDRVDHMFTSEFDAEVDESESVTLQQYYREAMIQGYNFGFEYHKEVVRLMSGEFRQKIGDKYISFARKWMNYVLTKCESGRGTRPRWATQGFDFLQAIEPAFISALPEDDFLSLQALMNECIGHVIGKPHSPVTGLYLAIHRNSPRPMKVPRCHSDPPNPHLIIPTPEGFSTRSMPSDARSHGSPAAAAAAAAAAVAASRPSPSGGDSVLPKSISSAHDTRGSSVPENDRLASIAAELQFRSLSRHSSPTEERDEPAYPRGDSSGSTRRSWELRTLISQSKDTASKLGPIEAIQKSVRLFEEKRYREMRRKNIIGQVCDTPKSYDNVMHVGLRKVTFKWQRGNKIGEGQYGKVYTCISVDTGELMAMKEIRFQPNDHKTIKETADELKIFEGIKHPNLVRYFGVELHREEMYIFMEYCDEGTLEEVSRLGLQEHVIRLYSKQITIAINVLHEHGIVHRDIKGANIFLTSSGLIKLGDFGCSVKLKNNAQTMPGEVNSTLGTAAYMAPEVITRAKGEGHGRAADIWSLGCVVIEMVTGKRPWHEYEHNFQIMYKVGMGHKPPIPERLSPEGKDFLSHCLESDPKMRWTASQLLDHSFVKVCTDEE

[18] = biological target: Mitogen-activated protein kinase kinase kinase kinase 2 (Homo sapiens, UniProt Q12851); assay: Inhibition of MAP4K2
[19] = biological target: Mitogen-activated protein kinase kinase kinase kinase 3 (Homo sapiens, UniProt Q8IVH8); assay: Inhibition of MAP4K3
[20] = biological target: Mitogen-activated protein kinase 1 (Homo sapiens, UniProt P28482); assay: Inhibition of MAPK1
[21] = biological target: Mitogen-activated protein kinase 8 (Homo sapiens, UniProt P45983); assay: Inhibition of MAPK8
[22] = biological target: Serine/threonine-protein kinase MARK2 (Homo sapiens, UniProt Q7KZI7); assay: Inhibition of MARK2
[23] = biological target: MAP/microtubule affinity-regulating kinase 4 (Homo sapiens, UniProt Q96L34); assay: Inhibition of MARK4
[24] = biological target: Hepatocyte growth factor receptor (Homo sapiens, UniProt P08581); assay: Inhibition of MET
[25] = biological target: Serine/threonine-protein kinase mTOR (Homo sapiens, UniProt P42345); assay: Inhibition of mTOR
[26] = biological target: Serine/threonine-protein kinase PAK 4 (Homo sapiens, UniProt O96013); assay: Inhibition of PAK4
[27] = biological target: Phosphatidylinositol 4,5-bisphosphate 3-kinase catalytic subunit alpha isoform (Homo sapiens, UniProt P42336); assay: Inhibition of PIK3Ca
[28] = biological target: Phosphatidylinositol 4,5-bisphosphate 3-kinase catalytic subunit beta isoform (Homo sapiens, UniProt P42338); assay: Inhibition of PIK3Cb
[29] = biological target: Phosphatidylinositol 4-kinase beta (Homo sapiens, UniProt Q9UBF8); assay: Inhibition of PIK4Cb
[30] = biological target: Serine/threonine-protein kinase PLK4 (Homo sapiens, UniProt O00444); assay: Inhibition of PLK4
[31] = biological target: 5'-AMP-activated protein kinase catalytic subunit alpha-2 (Homo sapiens, UniProt P54646); assay: Inhibition of PRKAA2
[32] = biological target: Protein kinase C alpha type (Homo sapiens, UniProt P17252); assay: Inhibition of PRKCA
[33] = biological target: Protein kinase C delta type (Homo sapiens, UniProt Q05655); assay: Inhibition of PRKCD
[34] = biological target: Protein kinase C theta type (Homo sapiens, UniProt Q04759); assay: Inhibition of PRKCQ
[35] = biological target: Proto-oncogene tyrosine-protein kinase receptor Ret (Homo sapiens, UniProt P07949); assay: Inhibition of RET
[36] = biological target: Receptor-interacting serine/threonine-protein kinase 2 (Homo sapiens, UniProt O43353); assay: Inhibition of RIPK2
[37] = biological target: Ribosomal protein S6 kinase alpha-5 (Homo sapiens, UniProt O75582); assay: Inhibition of RPS6KA5
[38] = biological target: Serine/threonine-protein kinase 17B (Homo sapiens, UniProt O94768); assay: Inhibition of STK17B
[39] = biological target: Serine/threonine-protein kinase 3 (Homo sapiens, UniProt Q13188); assay: Inhibition of STK3
[40] = biological target: Serine/threonine-protein kinase 4 (Homo sapiens, UniProt Q13043); assay: Inhibition of STK4
[41] = biological target: Serine/threonine-protein kinase TAO2 (Homo sapiens, UniProt Q9UL54); assay: Inhibition of TAOK2
[42] = biological target: Serine/threonine-protein kinase TAO3 (Homo sapiens, UniProt Q9H2K8); assay: Inhibition of TAOK3
[43] = biological target: Serine/threonine-protein kinase TBK1 (Homo sapiens, UniProt Q9UHD2); assay: Inhibition of TBK1
Chain of Serine/threonine-protein kinase TBK1 (Q9UHD2 whole entry): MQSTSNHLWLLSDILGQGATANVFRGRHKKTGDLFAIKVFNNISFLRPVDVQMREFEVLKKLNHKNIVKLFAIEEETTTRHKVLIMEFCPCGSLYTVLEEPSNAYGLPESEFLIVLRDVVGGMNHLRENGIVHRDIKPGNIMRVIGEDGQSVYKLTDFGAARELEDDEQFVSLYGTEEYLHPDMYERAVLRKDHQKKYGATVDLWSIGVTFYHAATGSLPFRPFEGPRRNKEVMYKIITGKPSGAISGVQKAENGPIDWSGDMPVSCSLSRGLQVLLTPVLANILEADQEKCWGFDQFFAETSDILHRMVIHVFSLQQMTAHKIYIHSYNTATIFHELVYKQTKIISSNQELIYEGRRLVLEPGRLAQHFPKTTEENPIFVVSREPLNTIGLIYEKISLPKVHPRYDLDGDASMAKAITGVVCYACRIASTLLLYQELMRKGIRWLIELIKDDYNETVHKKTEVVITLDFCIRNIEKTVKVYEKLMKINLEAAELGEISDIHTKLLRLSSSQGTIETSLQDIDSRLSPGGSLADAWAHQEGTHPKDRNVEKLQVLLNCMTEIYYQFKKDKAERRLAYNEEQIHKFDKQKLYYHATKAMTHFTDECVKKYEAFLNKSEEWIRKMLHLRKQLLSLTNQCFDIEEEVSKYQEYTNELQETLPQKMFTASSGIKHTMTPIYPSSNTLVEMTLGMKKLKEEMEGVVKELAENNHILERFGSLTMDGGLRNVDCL

[44] = biological target: Activated CDC42 kinase 1 (Homo sapiens, UniProt Q07912); assay: Inhibition of TNK2
[45] = Volume of distribution at steady state […] at 5 mg/kg, po; 1 mg/kg, iv; type: ADME, organism-based; conditions: read-out: Vdss
[46] = Half life in cynomolgus monkey; type: ADME, organism-based, Macaca fascicularis; conditions: in vivo
[47] = biological target: Cytochrome P450 1A2 (Homo sapiens, UniProt P05177); assay: Inhibition of CYP1A2 at >20 uM; type: ADME
Chain of Cytochrome P450 1A2 (P05177 whole entry): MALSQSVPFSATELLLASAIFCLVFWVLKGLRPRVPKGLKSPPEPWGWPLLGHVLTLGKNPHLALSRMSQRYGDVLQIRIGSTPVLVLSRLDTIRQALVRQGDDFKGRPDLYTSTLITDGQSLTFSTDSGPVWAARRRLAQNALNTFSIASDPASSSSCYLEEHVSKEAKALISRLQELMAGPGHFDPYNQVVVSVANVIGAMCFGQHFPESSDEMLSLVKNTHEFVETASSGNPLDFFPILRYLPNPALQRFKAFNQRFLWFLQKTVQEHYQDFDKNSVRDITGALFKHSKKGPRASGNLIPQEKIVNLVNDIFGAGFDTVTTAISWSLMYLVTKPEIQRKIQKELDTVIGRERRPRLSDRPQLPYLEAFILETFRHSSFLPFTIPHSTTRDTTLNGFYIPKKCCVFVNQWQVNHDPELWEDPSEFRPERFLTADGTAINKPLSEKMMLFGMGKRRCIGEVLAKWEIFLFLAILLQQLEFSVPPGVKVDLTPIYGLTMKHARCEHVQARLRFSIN

[48] = biological target: Cytochrome P450 2C19 (Homo sapiens, UniProt P33261); assay: Inhibition of CYP2C19 at >20 uM; type: ADME
[49] = test system: Mus musculus; assay: Antiarthritic activity against collagen-induced arthritis mouse model assessed as mean clinical arthritis score with AUC calculation in at 10 mg/kg, po BID for 14 days; type: functional
[50] = Cmax in mouse at 3 mg/kg, po BID; type: ADME, organism-based; design: dose 3 mg/kg, route oral; conditions: in vivo
[51] = Cmax in mouse at 10 mg/kg, po BID; type: ADME, organism-based; design: dose 10 mg/kg, route oral; conditions: in vivo
[52] = biological target: Tyrosine-protein kinase ABL2 (Homo sapiens, UniProt P42684); assay: Inhibition of ABL2
Chain of Tyrosine-protein kinase ABL2 (P42684 whole entry): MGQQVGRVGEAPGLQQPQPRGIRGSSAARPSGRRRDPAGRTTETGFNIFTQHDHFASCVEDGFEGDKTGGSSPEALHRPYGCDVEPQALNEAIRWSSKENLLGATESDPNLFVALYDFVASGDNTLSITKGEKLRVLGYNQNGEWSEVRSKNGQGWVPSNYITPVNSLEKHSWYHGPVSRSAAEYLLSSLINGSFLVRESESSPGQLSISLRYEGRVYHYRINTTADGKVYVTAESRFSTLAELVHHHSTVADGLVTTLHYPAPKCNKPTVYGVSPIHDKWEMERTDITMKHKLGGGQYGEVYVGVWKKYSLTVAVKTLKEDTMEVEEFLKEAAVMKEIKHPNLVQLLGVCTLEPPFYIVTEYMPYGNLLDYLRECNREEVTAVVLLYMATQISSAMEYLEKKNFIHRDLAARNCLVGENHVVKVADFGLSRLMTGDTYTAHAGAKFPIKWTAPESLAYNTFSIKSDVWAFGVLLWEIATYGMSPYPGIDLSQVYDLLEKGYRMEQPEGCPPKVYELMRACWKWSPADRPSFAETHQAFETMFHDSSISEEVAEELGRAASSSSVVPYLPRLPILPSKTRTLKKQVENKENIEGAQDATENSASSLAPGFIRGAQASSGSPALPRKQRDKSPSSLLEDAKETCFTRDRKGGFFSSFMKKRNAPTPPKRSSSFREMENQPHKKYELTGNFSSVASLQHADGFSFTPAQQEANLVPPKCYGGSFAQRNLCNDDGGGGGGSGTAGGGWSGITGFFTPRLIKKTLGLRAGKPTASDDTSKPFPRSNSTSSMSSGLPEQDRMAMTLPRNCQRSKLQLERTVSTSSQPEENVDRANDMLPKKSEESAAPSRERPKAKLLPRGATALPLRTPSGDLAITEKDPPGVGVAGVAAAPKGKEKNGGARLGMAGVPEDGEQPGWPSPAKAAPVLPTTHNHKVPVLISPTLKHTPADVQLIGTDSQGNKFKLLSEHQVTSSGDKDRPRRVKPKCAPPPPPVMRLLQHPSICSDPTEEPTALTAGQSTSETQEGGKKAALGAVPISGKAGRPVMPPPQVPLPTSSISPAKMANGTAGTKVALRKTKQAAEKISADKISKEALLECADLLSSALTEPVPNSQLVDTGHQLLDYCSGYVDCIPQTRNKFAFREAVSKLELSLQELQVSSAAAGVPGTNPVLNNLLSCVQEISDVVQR

[53] = biological target: Activin receptor type-1 (Homo sapiens, UniProt Q04771); assay: Inhibition of ACVR1
[54] = biological target: Bone morphogenetic protein receptor type-1A (Homo sapiens, UniProt P36894); assay: Inhibition of BMPR1A
[55] = Oral bioavailability in Wistar rat at 5 mg/kg; 1 mg/kg, iv; conditions: in vivo

## CC(C)(C)NS(=O)(=O)c1cncc(-c2ccn3nc(N)nc3c2)c1
[1]
  IC50: > 10 µM
[2]
  IC50: > 10 µM
[3]
  IC50: > 10 µM
[4]
  IC50: > 10 µM
[5]
  IC50: > 10 µM
[6]
  IC50: > 10 µM
[7]
  IC50: > 10 µM
[8]
  IC50: > 10 µM
[9]
  IC50: > 10 µM
[10]
  IC50: > 10 µM
[11]
  IC50: > 10 µM
[12]
  IC50: > 10 µM
[13]
  IC50: > 10 µM
[14]
  IC50: > 10 µM
[15]
  IC50: > 10 µM
[16]
  IC50: > 10 µM
[17]
  IC50: > 10 µM
[18]
  IC50: > 10 µM
[19]
  IC50: > 10 µM
[20]
  IC50: > 10 µM
[21]
  IC50: > 10 µM
[22]
  IC50: > 10 µM
[23]
  IC50: > 10 µM
[24]
  IC50: > 10 µM
[25]
  IC50: > 10 µM
[26]
  IC50: 9.33 µM
[27]
  IC50: 2.45 µM
[28]
  IC50: 0.49 µM
[29]
  IC50: > 10 µM
[30]
  IC50: > 10 µM
[31]
  IC50: > 10 µM
[32]
  IC50: > 10 µM
[33]
  IC50: > 10 µM
[34]
  IC50: > 10 µM
[35]
  IC50: > 10 µM
[36]
  IC50: > 10 µM
[37]
  IC50: > 10 µM
[38]
  IC50: > 10 µM
[39]
  IC50: > 10 µM
[40]
  IC50: > 10 µM
[41]
  IC50: > 10 µM
[42]
  IC50: > 10 µM
[43]
  IC50: > 10 µM
[44]
  IC50: > 10 µM
[45]
  Vd: 1.3 L/kg
[46]
  half-life: 6.1 h
[47]
  inhibition (INH): Active
[48]
  inhibition (INH): Active
[49]
  Activity: 42%
[50]
  Cmax: 2.5 µM
[51]
  Cmax: 10.2 µM
[52]
  IC50: > 10 µM
[53]
  IC50: > 10 µM
[54]
  IC50: > 10 µM
[55]
  bioavailability: 81%
